Measurements: the OligoGym collection
HELM strings list units from the 5' end as sugar, base in round brackets, then linkage (d deoxyribose, r ribose, m 2'-O-methyl, p phosphodiester). Strings are as the collection lists them; they lack the last nucleoside at the 3' end of the tested compound. [moe] = 2'-O-(2-methoxyethyl) (MOE); [sp] = phosphorothioate linkage; [m5C] = 5-methylcytosine

Biological target: ATXN2
Test: mouse, dose not given
Details: ASO

Substance	3 h FOB score [score 0-7]
RNA1{[moe](T)[sp].[moe](G)p.[moe]([m5C])p.[moe](T)p.[moe](T)p.d(A)[sp].d(T)[sp].d(T)[sp].d(A)[sp].d(T)[sp].d(T)[sp].d([m5C])[sp].d(T)[sp].d([m5C])[sp].d(A)[sp].[moe]([m5C])p.[moe](A)p.[moe](T)[sp].[moe](A)}$$$$ (last 3' nucleoside missing)	0
RNA1{[moe](T)[sp].[moe](G)p.[moe]([m5C])p.[moe](T)p.[moe]([m5C])p.d(T)[sp].d([m5C])[sp].d(T)[sp].d(T)[sp].d(T)[sp].d(G)[sp].d([m5C])[sp].d(G)[sp].d([m5C])[sp].d([m5C])[sp].[moe](T)p.[moe](G)p.[moe](T)[sp].[moe](G)}$$$$ (last 3' nucleoside missing)	5
RNA1{[moe](T)[sp].[moe](G)p.[moe]([m5C])p.[moe]([m5C])p.[moe](T)[sp].d([m5C])[sp].d(T)[sp].d(A)[sp].d([m5C])[sp].d(T)[sp].d([m5C])[sp].d(G)[sp].d(G)[sp].[moe](T)p.[moe]([m5C])p.[moe]([m5C])[sp].[moe](A)}$$$$ (last 3' nucleoside missing)	4
RNA1{[moe](T)[sp].[moe](T)p.[moe](A)p.[moe](A)p.[moe]([m5C])p.d(A)[sp].d([m5C])[sp].d(T)[sp].d(T)[sp].d(T)[sp].d(A)[sp].d([m5C])[sp].d(T)[sp].d([m5C])[sp].d(A)[sp].[moe]([m5C])p.[moe](T)p.[moe](G)[sp].[moe]([m5C])}$$$$ (last 3' nucleoside missing)	4.5
RNA1{[moe](T)[sp].[moe](T)p.[moe](A)p.[moe](A)p.[moe]([m5C])p.d(T)[sp].d(G)[sp].d(T)[sp].d(G)[sp].d(T)[sp].d(T)[sp].d(A)[sp].d(G)[sp].d(A)[sp].d(A)[sp].[moe](T)p.[moe](G)p.[moe]([m5C])[sp].[moe](T)}$$$$ (last 3' nucleoside missing)	5.5
RNA1{[moe](T)[sp].[moe](T)p.[moe](A)p.[moe](G)p.[moe](A)[sp].d(G)[sp].d(T)[sp].d(T)[sp].d(T)[sp].d(T)[sp].d(T)[sp].d(G)[sp].d([m5C])[sp].[moe]([m5C])p.[moe](T)p.[moe](T)[sp].[moe]([m5C])}$$$$ (last 3' nucleoside missing)	5.5
RNA1{[moe](T)[sp].[moe](T)p.[moe](A)p.[moe](G)p.[moe](A)p.d(G)[sp].d(T)[sp].d(T)[sp].d(T)[sp].d(T)[sp].d(T)[sp].d(G)[sp].d([m5C])[sp].d([m5C])[sp].d(T)[sp].[moe](T)p.[moe]([m5C])p.[moe]([m5C])[sp].[moe](A)}$$$$ (last 3' nucleoside missing)	3.5
RNA1{[moe](T)[sp].[moe](T)p.[moe](A)p.[moe](G)p.[moe](G)p.d([m5C])[sp].d(T)[sp].d(A)[sp].d(G)[sp].d(G)[sp].d([m5C])[sp].d(A)[sp].d([m5C])[sp].d(A)[sp].d(T)[sp].[moe](G)p.[moe](G)p.[moe](A)[sp].[moe](G)}$$$$ (last 3' nucleoside missing)	5.25
RNA1{[moe](T)[sp].[moe](T)p.[moe](A)p.[moe](G)p.[moe]([m5C])p.d(T)[sp].d([m5C])[sp].d(A)[sp].d(T)[sp].d([m5C])[sp].d(A)[sp].d(A)[sp].d(G)[sp].d(G)[sp].d(T)[sp].[moe](A)p.[moe]([m5C])p.[moe]([m5C])[sp].[moe](A)}$$$$ (last 3' nucleoside missing)	3.75
RNA1{[moe](T)[sp].[moe](T)p.[moe](A)p.[moe]([m5C])p.[moe](T)[sp].d(G)[sp].d(T)[sp].d(T)[sp].d(T)[sp].d([m5C])[sp].d(G)[sp].d(A)[sp].d([m5C])[sp].[moe]([m5C])p.[moe](T)p.[moe]([m5C])[sp].[moe](T)}$$$$ (last 3' nucleoside missing)	6
RNA1{[moe](T)[sp].[moe](T)p.[moe](A)p.[moe]([m5C])p.[moe](T)p.d(G)[sp].d(T)[sp].d(T)[sp].d(T)[sp].d([m5C])[sp].d(G)[sp].d(A)[sp].d([m5C])[sp].d([m5C])[sp].d(T)[sp].[moe]([m5C])p.[moe](T)p.[moe](G)[sp].[moe](A)}$$$$ (last 3' nucleoside missing)	4.5
RNA1{[moe](T)[sp].[moe](T)p.[moe](A)p.[moe]([m5C])p.[moe](T)p.d(T)[sp].d([m5C])[sp].d(T)[sp].d(T)[sp].d(T)[sp].d(T)[sp].d(G)[sp].d([m5C])[sp].d(T)[sp].d(A)[sp].[moe](G)p.[moe]([m5C])p.[moe](T)[sp].[moe](G)}$$$$ (last 3' nucleoside missing)	1
RNA1{[moe](T)[sp].[moe](T)p.[moe](G)p.[moe](A)p.[moe](A)p.d(T)[sp].d(T)[sp].d(A)[sp].d([m5C])[sp].d(A)[sp].d(A)[sp].d(T)[sp].d(G)[sp].d([m5C])[sp].d(G)[sp].[moe](G)p.[moe](T)p.[moe](A)[sp].[moe](T)}$$$$ (last 3' nucleoside missing)	4
RNA1{[moe](T)[sp].[moe](T)p.[moe](G)p.[moe](T)p.[moe](A)p.d([m5C])[sp].d(T)[sp].d(T)[sp].d([m5C])[sp].d(A)[sp].d([m5C])[sp].d(A)[sp].d(T)[sp].d(T)[sp].d(T)[sp].[moe](G)p.[moe](G)p.[moe](A)[sp].[moe](G)}$$$$ (last 3' nucleoside missing)	3.75
RNA1{[moe](T)[sp].[moe](T)p.[moe](G)p.[moe](T)p.[moe](T)p.d(A)[sp].d([m5C])[sp].d(T)[sp].d(G)[sp].d(T)[sp].d(T)[sp].d(T)[sp].d([m5C])[sp].d(G)[sp].d(A)[sp].[moe]([m5C])p.[moe]([m5C])p.[moe](T)[sp].[moe]([m5C])}$$$$ (last 3' nucleoside missing)	4.25
RNA1{[moe](T)[sp].[moe](T)p.[moe](G)p.[moe](T)p.[moe](T)p.d([m5C])[sp].d(T)[sp].d(T)[sp].d([m5C])[sp].d([m5C])[sp].d(A)[sp].d(A)[sp].d(T)[sp].d(T)[sp].d(T)[sp].[moe]([m5C])p.[moe](A)p.[moe](G)[sp].[moe](A)}$$$$ (last 3' nucleoside missing)	0
RNA1{[moe](T)[sp].[moe](T)p.[moe](G)p.[moe]([m5C])p.[moe](A)p.d([m5C])[sp].d(A)[sp].d(T)[sp].d(A)[sp].d(G)[sp].d(G)[sp].d(T)[sp].d(T)[sp].d(A)[sp].d(G)[sp].[moe](A)p.[moe](A)p.[moe](T)[sp].[moe](T)}$$$$ (last 3' nucleoside missing)	6.5
RNA1{[moe](T)[sp].[moe](T)p.[moe](T)p.[moe](G)p.[moe](A)p.d(A)[sp].d(T)[sp].d(T)[sp].d(A)[sp].d([m5C])[sp].d(A)[sp].d(A)[sp].d(T)[sp].d(G)[sp].d([m5C])[sp].[moe](G)p.[moe](G)p.[moe](T)[sp].[moe](A)}$$$$ (last 3' nucleoside missing)	3.5
RNA1{[moe](T)[sp].[moe](T)p.[moe](T)p.[moe](G)p.[moe](T)p.d(T)[sp].d(A)[sp].d([m5C])[sp].d(T)[sp].d(G)[sp].d(T)[sp].d(T)[sp].d(T)[sp].d([m5C])[sp].d(G)[sp].[moe](A)p.[moe]([m5C])p.[moe]([m5C])[sp].[moe](T)}$$$$ (last 3' nucleoside missing)	5
RNA1{[moe](T)[sp].[moe](T)p.[moe](T)p.[moe](G)p.[moe]([m5C])p.d(T)[sp].d(T)[sp].d(A)[sp].d(T)[sp].d(T)[sp].d(A)[sp].d(T)[sp].d(T)[sp].d([m5C])[sp].d(T)[sp].[moe]([m5C])p.[moe](A)p.[moe]([m5C])[sp].[moe](A)}$$$$ (last 3' nucleoside missing)	0
RNA1{[moe](T)[sp].[moe](T)p.[moe](T)p.[moe](T)p.[moe](G)p.d(A)[sp].d(A)[sp].d(T)[sp].d(T)[sp].d(A)[sp].d([m5C])[sp].d(A)[sp].d(A)[sp].d(T)[sp].d(G)[sp].[moe]([m5C])p.[moe](G)p.[moe](G)[sp].[moe](T)}$$$$ (last 3' nucleoside missing)	2
RNA1{[moe](T)[sp].[moe](T)p.[moe](T)p.[moe](T)p.[moe](G)p.d([m5C])[sp].d(T)[sp].d(T)[sp].d(A)[sp].d(T)[sp].d(T)[sp].d(A)[sp].d(T)[sp].d(T)[sp].d([m5C])[sp].[moe](T)p.[moe]([m5C])p.[moe](A)[sp].[moe]([m5C])}$$$$ (last 3' nucleoside missing)	0
RNA1{[moe](T)[sp].[moe](T)p.[moe](T)p.[moe](T)p.[moe](T)p.d(G)[sp].d([m5C])[sp].d(T)[sp].d(T)[sp].d(A)[sp].d(T)[sp].d(T)[sp].d(A)[sp].d(T)[sp].d(T)[sp].[moe]([m5C])p.[moe](T)p.[moe]([m5C])[sp].[moe](A)}$$$$ (last 3' nucleoside missing)	0
RNA1{[moe](T)[sp].[moe](T)p.[moe](T)p.[moe](T)p.[moe]([m5C])[sp].d(T)[sp].d([m5C])[sp].d(A)[sp].d(T)[sp].d(G)[sp].d(T)[sp].d(G)[sp].d([m5C])[sp].[moe](G)p.[moe](G)p.[moe]([m5C])[sp].[moe](A)}$$$$ (last 3' nucleoside missing)	5.5
RNA1{[moe](T)[sp].[moe](T)p.[moe](T)p.[moe](T)p.[moe]([m5C])p.d(T)[sp].d([m5C])[sp].d(A)[sp].d(T)[sp].d(G)[sp].d(T)[sp].d(G)[sp].d([m5C])[sp].d(G)[sp].d(G)[sp].[moe]([m5C])p.[moe](A)p.[moe](T)[sp].[moe]([m5C])}$$$$ (last 3' nucleoside missing)	5
RNA1{[moe](T)[sp].[moe](T)p.[moe](T)p.[moe]([m5C])p.[moe](T)p.d([m5C])[sp].d(A)[sp].d(T)[sp].d(G)[sp].d(T)[sp].d(G)[sp].d([m5C])[sp].d(G)[sp].d(G)[sp].d([m5C])[sp].[moe](A)p.[moe](T)p.[moe]([m5C])[sp].[moe](A)}$$$$ (last 3' nucleoside missing)	6
